Measurements as given in US20230174945A1, “METHOD FOR INDUCING DIFFERENTIATION INTO PANCREATIC ALPHA CELLS” (KANEKA CORPORATION, priority 2020, published 2023).

Legend:
human iPS cells [1] = assay: Quantitative RT-PCR of cells differentiated from human iPS cells, with additives in the endodermal cell to primitive gut tube (PGT) cell step; assay type: cell-based; settings: added to medium for 3 days when inducing endodermal cells into PGT cells (0.67 µM LDN193189, 1 µM EC23); compared to cells of Comparative Example 1; standardized by OAZ1; FIG. 1
Description: Differentiation was induced by the same method as in Comparative Example 1 up to the endodermal cells. For induction of differentiation from the endodermal cells into primitive gut tube (PGT) cells, the suspension culture was implemented for 3 days in a medium obtained by adding 0.67 µM LDN193189 to the medium used in Comparative Example 1, a medium obtained by adding 1 µM EC23 to the medium used in Comparative Example 1, or a medium obtained by adding both of them to the medium used in Comparative Example 1. In addition, 2.5 µM Y-27632 was added to the above-mentioned medium for the purpose of maintaining the shape of the clumps. A 30 mL single-use bioreactor was mounted on a six-channel magnetic stirrer, and while stirring at the speed of 45 rpm, the suspension culture was implemented in a 5% CO2 incubator at 37° C. Induction of differentiation after posterior foregut (PFG) cells was performed in the same method as in Comparative Example 1.
Total RNA was isolated and purified from the cells obtained by inducing differentiation in (1) using Isogen (Nippon Gene), and cDNA was synthesized from the obtained total RNA using PrimeScriptII (TaKaRa Bio Inc.). Using the obtained cDNA as a template, quantitative PCR was implemented by means of a MyiQ qPCR machine (Bio-Rad), using GoTaq qPCR master mix (Promega). For the detection, the intercalation method using SYBR Green was used, and for the gene expression level comparison, the relative quantification method by means of the ΔΔCt method or the ΔCt method was used. The expression level of each gene was standardized by OAZ1 which is a housekeeping gene.

human iPS cells [2] = assay: Measurement of GCG (glucagon) secretion amount by Glucagon ELISA; assay type: cell-based; settings: ascorbic acid removed from differentiation medium after PGT cells (Example 2) compared to medium with 0.25 mM ascorbic acid (Example 1); 2.0 mM glucose, 1 hour; FIG. 2
Description: Primitive gut tube (PGT) cells were produced from human iPS cells by the same method as in Example 1. The obtained primitive gut tube (PGT) cells were induced to differentiate into cells after posterior foregut (PFG) cells using a medium obtained by removing ascorbic acid from the medium of Comparative Example 1. The cells obtained by inducing differentiation in (1) were recovered in 2 × 10^6 cells and cultured for 30 minutes in a DMEM medium (containing 2 mM glucose) containing 10 mM HEPES and 0.1 (volume/volume)% BSA. Thereafter, the cells were washed twice with a DMEM medium (without glucose) containing 10 mM HEPES and 0.1 (volume/volume)% BSA. Thereafter, the cells were cultured for 1 hour in a DMEM medium containing 1 mL of 2.0 mM glucose, 10 mM HEPES, and 0.1 (volume/volume)% BSA. Thereafter, the GCG concentration contained in the culture supernatant was measured using a Glucagon ELISA 10 µl Kit (Mercodia). The GCG secretion amounts of the cells obtained in Example 1 and Comparative Example 1 were also measured as comparison targets by the above-mentioned method.

CC1(C)CCC(C)(C)c2cc(C#Cc3ccc(C(=O)O)cc3)ccc21 [EC23]
expression level of the GCG gene (human iPS cells [1]): up-regulation

c1ccc2c(-c3cnn4cc(-c5ccc(N6CCNCC6)cc5)cnc34)ccnc2c1 [LDN193189]
expression level of the INS gene (human iPS cells [1]): down-regulation | expression level of the NKX6.1 gene (human iPS cells [1]): down-regulation

O=C1O[C@H]([C@@H](O)CO)C(O)=C1O [ascorbic acid]
glucagon secretion amount (human iPS cells [2]): larger
